Experimental data reported in PubChem BioAssay AID248 (DTP/NCI, 2004).
Where “and” joins values, the source holds several entries; their conditions need not be identical. Equal values may be shown once. Inconclusive results and toxic doses are left out. Cut-off read from the data, not from the text of the source: active = T/C of 150% or more; inactive = T/C below 125%.

Test system: L1210 leukemia ip in BDF1 mice, survival T/C
Assay: NCI In Vivo Anticancer Drug Screen. Data for tumor model L1210 Leukemia (intraperitoneal) in B6D2F1 (BDF1) mice
Conditions: endpoint: mean survival time, higher = longer survival
Method in brief: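 Each compound was tested against a transplantable tumor grown in mice. The endpoint was survival, with treated animals benchmarked against vehicle controls as a simple ratio.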

[1] = dose: 100.0 mg/kg/injection, schedule: Q01DX009 (ip), vehicle: saline with Tween-80
[2] = dose: 100.0 mg/kg/injection, schedule: Q04DX003 (ip), vehicle: saline with Tween-80
[3] = dose: 200.0 mg/kg/injection, schedule: Q04DX003 (ip), vehicle: saline with Tween-80
[4] = dose: 400.0 mg/kg/injection, schedule: Q01DX009 (ip), vehicle: saline with Tween-80
[5] = dose: 400.0 mg/kg/injection, schedule: Q04DX003 (ip), vehicle: saline with Tween-80
[6] = dose: 200.0 mg/kg/injection, schedule: Q01DX009 (ip), vehicle: saline with Tween-80
[7] = dose: 100.0 mg/kg/injection, schedule: Q01DX001 (ip), vehicle: carboxymethylcellulose (CMC)
[8] = dose: 200.0 mg/kg/injection, schedule: Q01DX001 (ip), vehicle: carboxymethylcellulose (CMC)
[9] = dose: 400.0 mg/kg/injection, schedule: Q01DX001 (ip), vehicle: carboxymethylcellulose (CMC)
[10] = dose: 12.5 mg/kg/injection, schedule: Q01DX001 (ip), vehicle: carboxymethylcellulose (CMC)
[11] = dose: 25.0 mg/kg/injection, schedule: Q01DX001 (ip), vehicle: carboxymethylcellulose (CMC)
[12] = dose: 50.0 mg/kg/injection, schedule: Q01DX001 (ip), vehicle: carboxymethylcellulose (CMC)
[13] = dose: 100.0 mg/kg/injection, schedule: Q04DX003 (ip), vehicle: saline
[14] = dose: 100.0 mg/kg/injection, schedule: Q01DX001 (ip), vehicle: saline
[15] = dose: 200.0 mg/kg/injection, schedule: Q01DX001 (ip), vehicle: saline
[16] = dose: 50.0 mg/kg/injection, schedule: Q01DX001 (ip), vehicle: saline
[17] = dose: 100.0 mg/kg/injection, schedule: Q01DX009 (ip), vehicle: saline
[18] = dose: 200.0 mg/kg/injection, schedule: Q01DX009 (ip), vehicle: saline
[19] = dose: 300.0 mg/kg/injection, schedule: Q01DX001 (ip), vehicle: carboxymethylcellulose (CMC)

Measured: T/C

c1ccc2nc3c(nc2c1)[nH]c1ccccc13
inactive: dose: 62.5 mg/kg/injection, schedule: Q01DX Z (ip), vehicle: carboxymethylcellulose (CMC) 94 % of control | dose: 125.0 mg/kg/injection, schedule: Q01DX Z (ip), vehicle: carboxymethylcellulose (CMC) 100 % of control | dose: 250.0 mg/kg/injection, schedule: Q01DX Z (ip), vehicle: carboxymethylcellulose (CMC) 95 % of control | dose: 500.0 mg/kg/injection, schedule: Q01DX Z (ip), vehicle: carboxymethylcellulose (CMC) 91 % of control

C(=N\Nc1nn[nH]n1)/c1ccncc1
inactive: [1] 98 % of control | [2] 95 % of control | dose: 132.0 mg/kg/injection, schedule: Q01DX009 (ip), vehicle: saline with Tween-80 102 % of control | [3] 96 % of control | dose: 300.0 mg/kg/injection, schedule: Q01DX009 (ip), vehicle: saline with Tween-80 97 % of control | [4] 100 % of control | [5] 90 % of control

S=c1[nH]c2nccnc2[nH]1
inactive: dose: 25.0 mg/kg/injection, schedule: Q01DX009 (ip), vehicle: saline with Tween-80 96 % of control | dose: 50.0 mg/kg/injection, schedule: Q01DX009 (ip), vehicle: saline with Tween-80 96 % of control | [1] 93 % of control | [6] 97 % of control | [4] 104 % of control

Nc1ccc(C(=O)O)c(O)c1
inactive: dose: 37.88 mg/kg/injection, schedule: Q01DX Z (ip), vehicle: carboxymethylcellulose (CMC) 105 % of control | dose: 75.75 mg/kg/injection, schedule: Q01DX Z (ip), vehicle: carboxymethylcellulose (CMC) 96 % of control | [7] 97 % of control | [1] 104 % of control | [2] 96 % of control and 97 % of control | dose: 151.5 mg/kg/injection, schedule: Q01DX Z (ip), vehicle: carboxymethylcellulose (CMC) 96 % of control | [8] 97 % of control | [6] 97 % of control | [3] 95 % of control and 103 % of control | dose: 303.0 mg/kg/injection, schedule: Q01DX Z (ip), vehicle: carboxymethylcellulose (CMC) 95 % of control | [9] 89 % of control | [4] 95 % of control | [5] 95 % of control and 101 % of control

Cc1ncc(CC#N)c2c1OC(C)(C)OC2
inactive: [10] 107 % of control | [11] 104 % of control | [12] 101 % of control

CS(=O)(=O)Nc1ccccc1OS(C)(=O)=O
inactive: dose: 75.0 mg/kg/injection, schedule: Q01DX001 (ip), vehicle: saline 102 % of control | dose: 150.0 mg/kg/injection, schedule: Q01DX001 (ip), vehicle: saline 106 % of control | dose: 300.0 mg/kg/injection, schedule: Q01DX001 (ip), vehicle: saline 106 % of control

C[N+](C)(CCOC(=O)C1C2CC3OC(=O)C1C3C2)Cc1ccccc1 (stereo unspecified)
inactive: [13] 101 % of control

CC(=O)OC1CC2CC1C1C3C=CC(C3)C21 (stereo unspecified)
inactive: [14] 98 % of control | [15] 95 % of control | dose: 400.0 mg/kg/injection, schedule: Q01DX001 (ip), vehicle: saline 106 % of control

CCCCCCCCCCCCCCCCCCn1cnc2c(N)ncnc21
inactive: dose: 12.5 mg/kg/injection, schedule: Q01DX005 (ip), vehicle: other 105 % of control | dose: 25.0 mg/kg/injection, schedule: Q01DX005 (ip), vehicle: other 97 % of control | dose: 50.0 mg/kg/injection, schedule: Q01DX005 (ip), vehicle: other 102 % of control | dose: 100.0 mg/kg/injection, schedule: Q01DX005 (ip), vehicle: other 103 % of control | dose: 200.0 mg/kg/injection, schedule: Q01DX005 (ip), vehicle: other 108 % of control

C[Si](C)(c1ccc(C(=O)Cl)cc1)c1ccc(C(=O)Cl)cc1
inactive: dose: 100.0 mg/kg/injection, schedule: Q04DX002 (ip), vehicle: saline with Tween-80 96 % of control | dose: 200.0 mg/kg/injection, schedule: Q04DX002 (ip), vehicle: saline with Tween-80 96 % of control | dose: 400.0 mg/kg/injection, schedule: Q04DX002 (ip), vehicle: saline with Tween-80 100 % of control

NCCCCC(N)C(=O)Nc1ccc(Cc2ccc(NC(=O)C(N)CCCCN)cc2)cc1 (stereo unspecified)
inactive: [16] 103 % of control | [14] 100 % of control

CCCCOC(=O)Nc1cc(Cl)ccc1C
inactive: dose: 100.0 mg/kg/injection, schedule: Q01DX001 (ip), vehicle: gum acacia 95 % of control | dose: 200.0 mg/kg/injection, schedule: Q01DX001 (ip), vehicle: gum acacia 96 % of control | dose: 400.0 mg/kg/injection, schedule: Q01DX001 (ip), vehicle: gum acacia 98 % of control

CC(=O)Nc1ncnc2c1c(C(N)=O)cn2C1OC(COC(C)=O)C(OC(C)=O)C1OC(C)=O (stereo unspecified)
inactive: dose: 100.0 mg/kg/injection, schedule: Q01DX001 (ip), vehicle: water 102 % of control

NC(=S)NNC(=O)CN1C(=O)c2ccccc2C1=O
inactive: dose: 100.0 mg/kg/injection, schedule: Q01DX001 (ip), vehicle: Klucel (hydroxypropylcellulose) (HPC) 102 % of control | dose: 200.0 mg/kg/injection, schedule: Q01DX001 (ip), vehicle: Klucel (hydroxypropylcellulose) (HPC) 105 % of control | dose: 400.0 mg/kg/injection, schedule: Q01DX001 (ip), vehicle: Klucel (hydroxypropylcellulose) (HPC) 102 % of control

c1ccc2c(c1)Cc1cc(CN3CCOCC3)ccc1-2
inactive: [12] 92 % of control | [7] 100 % of control | [8] 94 % of control | [9] 94 % of control

CC1CC(O)=C(c2ccccc2)P1(=O)Cc1ccccc1 (stereo unspecified)
inactive: dose: 100.0 mg/kg/injection, schedule: Q04DX003 (ip), vehicle: Klucel (hydroxypropylcellulose) (HPC) 95 % of control | dose: 200.0 mg/kg/injection, schedule: Q04DX003 (ip), vehicle: Klucel (hydroxypropylcellulose) (HPC) 95 % of control | dose: 400.0 mg/kg/injection, schedule: Q04DX003 (ip), vehicle: Klucel (hydroxypropylcellulose) (HPC) 89 % of control

CS(=O)(=O)c1ccc(C(=N)N)cc1
inactive: [17] 93 % of control | [18] 97 % of control | dose: 400.0 mg/kg/injection, schedule: Q01DX009 (ip), vehicle: saline 95 % of control

NCCc1c[nH]c2ccccc12
inactive: [16] 104 % of control | [14] 102 % of control | [2] 104 % of control | [15] 91 % of control | [3] 93 % of control | [5] 110 % of control

c1ccc(-c2csc3[n+]2CCN3)cc1
inactive: [16] 99 % of control

COc1cc(N)c2nccc(N(C)C)c2c1
inactive: [17] 99 % of control | [13] 97 % of control | [18] 107 % of control | dose: 200.0 mg/kg/injection, schedule: Q04DX003 (ip), vehicle: saline 103 % of control | dose: 400.0 mg/kg/injection, schedule: Q04DX003 (ip), vehicle: saline 101 % of control

Nc1ccc(S(=O)(=O)Nc2ccc(C(=O)O)cc2)cc1
inactive: [2] 98 % of control | [3] 98 % of control | [5] 98 % of control

CC(=O)OCC(=O)C12OC1CC1C3CCC4CC(O)CCC4(C)C3CC(=O)C12C (stereo unspecified)
inactive: dose: 6.0 mg/kg/injection, schedule: Q04DX002 (ip), vehicle: other 91 % of control | dose: 12.5 mg/kg/injection, schedule: Q04DX002 (ip), vehicle: other 106 % of control | dose: 25.0 mg/kg/injection, schedule: Q04DX002 (ip), vehicle: other 98 % of control | dose: 50.0 mg/kg/injection, schedule: Q04DX002 (ip), vehicle: other 98 % of control

O=NN(CCCl)C(=O)N1CCN(C(=O)N(CCCl)N=O)CC1
inactive: [10] 112 % of control | [11] 116 % of control | [8] 95 % of control | [19] 90 % of control | [9] 87 % of control

O=c1ccnc(-c2ccccc2)[nH]1
inactive: dose: 100.0 mg/kg/injection, schedule: Q04DX002 (ip), vehicle: Klucel (hydroxypropylcellulose) (HPC) 119 % of control | dose: 200.0 mg/kg/injection, schedule: Q04DX002 (ip), vehicle: Klucel (hydroxypropylcellulose) (HPC) 119 % of control | dose: 400.0 mg/kg/injection, schedule: Q04DX002 (ip), vehicle: Klucel (hydroxypropylcellulose) (HPC) 114 % of control

Cc1ccc(S(=O)(=O)N/N=C2/C(=N/NS(=O)(=O)c3ccc(C)cc3)c3cccc4cccc2c34)cc1
inactive: dose: 75.0 mg/kg/injection, schedule: Q01DX001 (ip), vehicle: carboxymethylcellulose (CMC) 91 % of control | dose: 150.0 mg/kg/injection, schedule: Q01DX001 (ip), vehicle: carboxymethylcellulose (CMC) 91 % of control | [19] 88 % of control
